Results published in PubChem BioAssay AID330 (DTP/NCI, 2004).
“And” between values parts separate entries of the source, which are not always exact repeats. Equal values may be shown once. Toxic doses and inconclusive results are not listed.

Test system: P388 leukemia ip, CD2F1 mice, survival T/C
Assay: NCI In Vivo Anticancer Drug Screen. Data for tumor model P388 Leukemia (intraperitoneal) in CD2F1 (CDF1) mice
Conditions: endpoint: median survival time, higher = longer survival
Method in brief: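 Mice carrying the transplanted tumor received test compound or vehicle. Survival was recorded in each group, and the value is the treated-group measurement divided by that of the vehicle-treated control group.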

[1] = dose: 50.0 mg/kg/injection, schedule: Q01DX005 (ip), vehicle: saline with Tween-80
[2] = dose: 200.0 mg/kg/injection, schedule: Q01DX005 (ip), vehicle: saline with Tween-80
[3] = dose: 60.0 mg/kg/injection, schedule: Q01DX005 (ip), vehicle: Klucel (hydroxypropylcellulose) (HPC)
[4] = dose: 120.0 mg/kg/injection, schedule: Q01DX005 (ip), vehicle: Klucel (hydroxypropylcellulose) (HPC)
[5] = dose: 240.0 mg/kg/injection, schedule: Q01DX005 (ip), vehicle: Klucel (hydroxypropylcellulose) (HPC)
[6] = dose: 100.0 mg/kg/injection, schedule: Q01DX005 (ip), vehicle: saline with Tween-80
[7] = dose: 50.0 mg/kg/injection, schedule: Q01DX009 (ip), vehicle: saline
[8] = dose: 100.0 mg/kg/injection, schedule: Q01DX009 (ip), vehicle: saline
[9] = dose: 60.0 mg/kg/injection, schedule: Q01DX005 (ip), vehicle: saline with Tween-80
[10] = dose: 120.0 mg/kg/injection, schedule: Q01DX005 (ip), vehicle: saline with Tween-80
[11] = dose: 200.0 mg/kg/injection, schedule: Q04DX003 (ip), vehicle: saline with Tween-80

In the case of `CC1(C)C2CCC1(C)C(N1C(=O)N=NC1=O)C2` (configuration not stated), the T/C (dose: 12.5 mg/kg/injection, schedule: Q01DX005 (ip), vehicle: saline with Tween-80) is reported as 100 % of control, the T/C (dose: 25.0 mg/kg/injection, schedule: Q01DX005 (ip), vehicle: saline with Tween-80) is reported as 103 % of control and the T/C [1] is reported as 103 % of control and 91 % of control. For the same compound, the T/C [2] was 104 % of control.

For `CCOC(=O)c1c(N=P(c2ccccc2)(c2ccccc2)c2ccccc2)n(C)c(=O)n(C)c1=O`, the T/C [3] was 105 % of control, the T/C [4] was 99 % of control and the T/C [5] was 98 % of control.

For `O=C(CNC(=O)n1ccnc1)N/N=C/c1ccco1`, the T/C [1] was 95 % of control, the T/C [6] was 92 % of control and the T/C [2] was 89 % of control.

In the case of `COC(=O)[C@]12C(=O)C=CC(=O)C1CC=CC2C(OC(C)=O)C(COC(C)=O)OC(C)=O` (some centres not stated), the T/C (dose: 100.0 mg/kg/injection, schedule: Q01DX001 (ip), vehicle: saline with Tween-80) is reported as 103 % of control, the T/C (dose: 200.0 mg/kg/injection, schedule: Q01DX001 (ip), vehicle: saline with Tween-80) is reported as 100 % of control and the T/C (dose: 400.0 mg/kg/injection, schedule: Q01DX001 (ip), vehicle: saline with Tween-80) is reported as 103 % of control.

With `c1n[nH]c2c1CCCC2` the T/C (dose: 12.5 mg/kg/injection, schedule: Q01DX009 (ip), vehicle: saline) was 96 % of control, the T/C (dose: 25.0 mg/kg/injection, schedule: Q01DX009 (ip), vehicle: saline) was 105 % of control and the T/C [7] was 91 % of control. For the same compound, the T/C [8] was 104 % of control.

In the case of `c1cc(-c2cc3ccc(C4=NCCN4)cc3s2)ccc1C1=NCCN1`, the T/C (dose: 25.0 mg/kg/injection, schedule: Q04DX003 (ip), vehicle: saline) is reported as 115 % of control and the T/C (dose: 50.0 mg/kg/injection, schedule: Q04DX003 (ip), vehicle: saline) is reported as 115 % of control.

With `CCN(CC)CCOC(=O)c1ccc(N)c2ccccc12` the T/C [1] was 103 % of control and the T/C [6] was 100 % of control.

In the case of `CC1(C)CC(=O)CC(C(Cl)(Cl)Cl)O1` (configuration not stated), the T/C [1] is reported as 99 % of control, the T/C [6] is reported as 100 % of control and the T/C [2] is reported as 98 % of control.

For `CCCCP(=O)(CC(=O)O)c1ccccc1` (configuration not stated), the T/C [9] was 98 % of control, the T/C [10] was 99 % of control and the T/C (dose: 240.0 mg/kg/injection, schedule: Q01DX005 (ip), vehicle: saline with Tween-80) was 102 % of control.

For `O=S(=O)([O][Hg][CH2]C1Cc2ccccc2O1)[O][Hg][CH2]C1Cc2ccccc2O1` (configuration not stated), the T/C (dose: 11.0 mg/kg/injection, schedule: Q01DX009 (ip), vehicle: saline with Tween-80) was 118 % of control.

With `CSc1nc2ccc(NC(=O)/C=N/O)cc2s1` the T/C (dose: 50.0 mg/kg/injection, schedule: Q01DX009 (ip), vehicle: Klucel (hydroxypropylcellulose) (HPC)) was 91 % of control, the T/C (dose: 100.0 mg/kg/injection, schedule: Q01DX009 (ip), vehicle: Klucel (hydroxypropylcellulose) (HPC)) was 92 % of control and the T/C (dose: 200.0 mg/kg/injection, schedule: Q01DX009 (ip), vehicle: Klucel (hydroxypropylcellulose) (HPC)) was 87 % of control and 90 % of control.

`COc1ccc2c(c1)CCC(c1ccccc1)=C2c1ccc(OCCN2CCCC2)cc1` was tested, and the T/C (dose: 6.0 mg/kg/injection, schedule: Q01DX005 (ip), vehicle: Klucel (hydroxypropylcellulose) (HPC)) was 102 % of control, the T/C (dose: 12.0 mg/kg/injection, schedule: Q01DX005 (ip), vehicle: Klucel (hydroxypropylcellulose) (HPC)) was 105 % of control and the T/C (dose: 24.0 mg/kg/injection, schedule: Q01DX005 (ip), vehicle: Klucel (hydroxypropylcellulose) (HPC)) was 105 % of control. The T/C (dose: 48.0 mg/kg/injection, schedule: Q01DX005 (ip), vehicle: Klucel (hydroxypropylcellulose) (HPC)) was 103 % of control.

For `CCOC1=C(C#N)C(=O)NC2OC(CO)C(O)C2O1` (configuration not stated), the T/C [3] was 104 % of control, the T/C [4] was 104 % of control and the T/C [5] was 106 % of control.

With `Cc1ccc(CC(=O)O)cc1C` the T/C (dose: 100.0 mg/kg/injection, schedule: Q04DX003 (ip), vehicle: saline with Tween-80) was 190 % of control, the T/C [11] was 113 % of control and the T/C (dose: 400.0 mg/kg/injection, schedule: Q04DX003 (ip), vehicle: saline with Tween-80) was 113 % of control.

With `NNc1cc2c(nn1)CCN(C(=O)c1ccccc1)C2` the T/C [7] was 98 % of control and the T/C [8] was 108 % of control.

In the case of `O=C(O)CCCCCCCCCCOc1ccc(Cl)cc1`, the T/C (dose: 50.0 mg/kg/injection, schedule: Q04DX003 (ip), vehicle: Klucel (hydroxypropylcellulose) (HPC)) is reported as 96 % of control, the T/C (dose: 100.0 mg/kg/injection, schedule: Q04DX003 (ip), vehicle: Klucel (hydroxypropylcellulose) (HPC)) is reported as 99 % of control and the T/C (dose: 200.0 mg/kg/injection, schedule: Q04DX003 (ip), vehicle: Klucel (hydroxypropylcellulose) (HPC)) is reported as 105 % of control. The T/C (dose: 400.0 mg/kg/injection, schedule: Q04DX003 (ip), vehicle: Klucel (hydroxypropylcellulose) (HPC)) was 92 % of control.

For `CC(C)(C)C(=O)Oc1ccc([N+](=O)[O-])cc1`, the T/C (dose: 100.0 mg/kg/injection, schedule: Q04DX002 (ip), vehicle: saline with Tween-80) was 106 % of control, the T/C (dose: 200.0 mg/kg/injection, schedule: Q04DX002 (ip), vehicle: saline with Tween-80) was 122 % of control and the T/C (dose: 400.0 mg/kg/injection, schedule: Q04DX002 (ip), vehicle: saline with Tween-80) was 102 % of control.

`COc1cc(C(c2cc3c(cc2OC(C)=O)OCO3)C(C(C)=O)C(C)=O)cc(OC)c1OC(C)=O` (configuration not stated) was tested, and the T/C [9] was 90 % of control and the T/C [10] was 96 % of control.

In the case of `CCOC(=O)C(=C=[N-])[n+]1ccc(C)cc1`, the T/C (dose: 6.25 mg/kg/injection, schedule: Q01DX009 (ip), vehicle: saline sonified) is reported as 90 % of control, the T/C (dose: 12.5 mg/kg/injection, schedule: Q01DX009 (ip), vehicle: saline sonified) is reported as 90 % of control and the T/C (dose: 25.0 mg/kg/injection, schedule: Q01DX009 (ip), vehicle: saline sonified) is reported as 90 % of control.

With `CC1(C)N=C(N)N=C(N)N1c1cccc(CC(=O)Nc2ccc(S(=O)(=O)F)cc2)c1` the T/C [11] was 122 % of control.

`NC(N)=NS(=O)(=O)c1ccc(N=Cc2c3ccccc3nc3ccccc23)cc1` was tested, and the T/C (dose: 12.5 mg/kg/injection, schedule: Q04DX002 (ip), vehicle: Klucel (hydroxypropylcellulose) (HPC)) was 99 % of control, the T/C (dose: 25.0 mg/kg/injection, schedule: Q04DX002 (ip), vehicle: Klucel (hydroxypropylcellulose) (HPC)) was 94 % of control and the T/C (dose: 50.0 mg/kg/injection, schedule: Q04DX002 (ip), vehicle: Klucel (hydroxypropylcellulose) (HPC)) was 96 % of control. The T/C (dose: 100.0 mg/kg/injection, schedule: Q04DX002 (ip), vehicle: Klucel (hydroxypropylcellulose) (HPC)) was 96 % of control, the T/C (dose: 200.0 mg/kg/injection, schedule: Q04DX002 (ip), vehicle: Klucel (hydroxypropylcellulose) (HPC)) was 92 % of control and the T/C (dose: 400.0 mg/kg/injection, schedule: Q04DX002 (ip), vehicle: Klucel (hydroxypropylcellulose) (HPC)) was 96 % of control.

With `CC(/C=C/C=C/C=C/C=C/C=C/C(O)=C1/C(=O)C(CCC(=O)O)N(C)C1=O)=C\C(C)C(OC1CC(O)C(O)C(C)O1)C(C)C` (configuration not stated) the T/C (dose: 1.0 mg/kg/injection, schedule: Q01DX005 (ip), vehicle: water) was 121 % of control, the T/C (dose: 2.0 mg/kg/injection, schedule: Q01DX005 (ip), vehicle: water) was 165 % of control and the T/C (dose: 4.0 mg/kg/injection, schedule: Q01DX005 (ip), vehicle: water) was 112 % of control and 115 % of control. For the same compound, the T/C (dose: 8.0 mg/kg/injection, schedule: Q01DX005 (ip), vehicle: water) was 158 % of control and 163 % of control.

`C=CC1CN2CCC1CC2C(O)c1ccnc2ccc(OC)cc12` (configuration not stated) was tested, and the T/C [1] was 97 % of control, the T/C (dose: 50.0 mg/kg/injection, schedule: Q04DX003 (ip), vehicle: alcohol) was 115 % of control and the T/C [6] was 104 % of control. For the same compound, the T/C (dose: 100.0 mg/kg/injection, schedule: Q04DX003 (ip), vehicle: alcohol) was 105 % of control and the T/C (dose: 200.0 mg/kg/injection, schedule: Q04DX003 (ip), vehicle: alcohol) was 115 % of control.

With `Cc1ccc(S(=O)(=O)N2CC3CNC(=O)C(C3)C2)cc1` (configuration not stated) the T/C (dose: 100.0 mg/kg/injection, schedule: Q01DX001 (ip), vehicle: Klucel (hydroxypropylcellulose) (HPC)) was 104 % of control, the T/C (dose: 200.0 mg/kg/injection, schedule: Q01DX001 (ip), vehicle: Klucel (hydroxypropylcellulose) (HPC)) was 101 % of control and the T/C (dose: 400.0 mg/kg/injection, schedule: Q01DX001 (ip), vehicle: Klucel (hydroxypropylcellulose) (HPC)) was 107 % of control.
